# Data: PubChem BioAssay AID2060499 (Molecular Pharmacology Branch, DTP, NCI, 2025)
# Test system: 777334-354-R2-J4-PDC tumor spheroids with HUVEC/MSC, viability
# Test: Anticancer human tumor 777334-354-R2-J4-PDC patient-derived pancreatic adenocarcinoma cell line growth inhibition [GQUAD]
# Conditions: for IC50: curve of first compound; for viability, T/C: stronger effect = lower value
# Procedure, shortened: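 Multi-cell-type spheroids of tumor cells with HUVEC and mesenchymal stem cells, treated with drug combinations. Concentrations descend in half-log steps from near clinical Cmax, or from 10 microM where Cmax is unknown; viability read-out.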
# [1] = second compound 0.0316 µM, first compound 0.0316 µM
# [2] = second compound 0.0316 µM, first compound 0.1 µM
# [3] = second compound 0.0316 µM, first compound 0.316 µM
# [4] = second compound 0.0316 µM, first compound 1 µM
# [5] = second compound 0.0316 µM, first compound 3.16 µM
# [6] = second compound 0.0316 µM, first compound 10 µM
# [7] = second compound 0.1 µM, first compound 0.0316 µM
# [8] = second compound 0.1 µM, first compound 0.1 µM
# [9] = second compound 0.1 µM, first compound 0.316 µM
# [10] = second compound 0.1 µM, first compound 1 µM
# [11] = second compound 0.1 µM, first compound 3.16 µM
# [12] = second compound 0.1 µM, first compound 10 µM
# [13] = second compound 0.316 µM, first compound 0.0316 µM
# [14] = second compound 0.316 µM, first compound 0.1 µM
# [15] = second compound 0.316 µM, first compound 0.316 µM
# [16] = second compound 0.316 µM, first compound 1 µM
# [17] = second compound 0.316 µM, first compound 3.16 µM
# [18] = second compound 0.316 µM, first compound 10 µM
# [19] = second compound 1 µM, first compound 0.0316 µM
# [20] = second compound 1 µM, first compound 0.1 µM
# [21] = second compound 1 µM, first compound 0.316 µM
# [22] = second compound 1 µM, first compound 1 µM
# [23] = second compound 1 µM, first compound 3.16 µM
# [24] = second compound 1 µM, first compound 10 µM
# [25] = second compound 3.16 µM, first compound 0.0316 µM
# [26] = second compound 3.16 µM, first compound 0.1 µM
# [27] = second compound 3.16 µM, first compound 0.316 µM
# [28] = second compound 3.16 µM, first compound 1 µM
# [29] = second compound 3.16 µM, first compound 3.16 µM
# [30] = second compound 3.16 µM, first compound 10 µM
# [31] = second compound 10 µM, first compound 0.0316 µM
# [32] = second compound 10 µM, first compound 0.1 µM
# [33] = second compound 10 µM, first compound 0.316 µM
# [34] = second compound 10 µM, first compound 1 µM
# [35] = second compound 10 µM, first compound 3.16 µM
# [36] = second compound 10 µM, first compound 10 µM
# 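Note: spheroids exposed to compounds for 7 days before readout.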
structure (smiles),measurement,setting,value
CC(=O)O[C@H]1C(=O)[C@@]2(C)[C@H]([C@H](OC(=O)c3ccccc3)[C@]3(O)C[C@H](OC(=O)[C@H](O)[C@@H](NC(=O)c4ccccc4)c4ccccc4)C(C)=C1C3(C)C)[C@]1(OC(C)=O)CO[C@@H]1C[C@@H]2O + Cc1[nH]c2ccc(F)cc2c1-c1nc2c3cccnc3c3ncccc3c2[nH]1,IC50,second compound 0.0316 µM,291 nM
same,IC50,second compound 0.1 µM,305 nM
same,IC50,second compound 0.316 µM,222 nM
same,IC50,second compound 1 µM,240 nM
same,IC50,second compound 3.16 µM,< 31.6 nM
same,IC50,second compound 10 µM,< 31.6 nM
same,"viability, T/C",[1],97.1%
same,"viability, T/C",[2],66%
same,"viability, T/C",[3],49.7%
same,"viability, T/C",[4],41.1%
same,"viability, T/C",[5],51.8%
same,"viability, T/C",[6],43.3%
same,"viability, T/C",[7],94.9%
same,"viability, T/C",[8],59.9%
same,"viability, T/C",[9],48.4%
same,"viability, T/C",[10],46.4%
same,"viability, T/C",[11],49.6%
same,"viability, T/C",[12],47.6%
same,"viability, T/C",[13],81.4%
same,"viability, T/C",[14],59.5%
same,"viability, T/C",[15],45.6%
same,"viability, T/C",[16],45.2%
same,"viability, T/C",[17],47.5%
same,"viability, T/C",[18],44.1%
same,"viability, T/C",[19],70.9%
same,"viability, T/C",[20],58.5%
same,"viability, T/C",[21],44.2%
same,"viability, T/C",[22],45.3%
same,"viability, T/C",[23],44.6%
same,"viability, T/C",[24],38.1%
same,"viability, T/C",[25],35.9%
same,"viability, T/C",[26],28%
same,"viability, T/C",[27],22.2%
same,"viability, T/C",[28],17.4%
same,"viability, T/C",[29],17.8%
same,"viability, T/C",[30],15%
same,"viability, T/C",[31],30.7%
same,"viability, T/C",[32],23%
same,"viability, T/C",[33],19.6%
same,"viability, T/C",[34],14%
same,"viability, T/C",[35],15.3%
same,"viability, T/C",[36],15.7%
CC(C)(O)C1CCC(Nc2ccc3ncc(-c4cccc(C(F)(F)F)c4)n3n2)CC1 (stereo unspecified) + Cc1cnc(CNC(=O)c2c(=O)c3ccc(N4CCCN(C)CC4)nc3n3c2sc2ccccc23)cn1,IC50,second compound 0.0316 µM,880 nM
same,IC50,second compound 0.1 µM,806 nM
same,IC50,second compound 0.316 µM,838 nM
same,IC50,second compound 1 µM,913 nM
same,IC50,second compound 3.16 µM,776 nM
same,IC50,second compound 10 µM,< 31.6 nM
same,"viability, T/C",[1],105%
same,"viability, T/C",[2],74%
same,"viability, T/C",[3],94.5%
same,"viability, T/C",[4],44.8%
same,"viability, T/C",[5],27.7%
same,"viability, T/C",[6],35.2%
same,"viability, T/C",[7],85%
same,"viability, T/C",[8],74%
same,"viability, T/C",[9],79.5%
same,"viability, T/C",[10],43.2%
same,"viability, T/C",[11],29.1%
same,"viability, T/C",[12],35.4%
same,"viability, T/C",[13],80.8%
same,"viability, T/C",[14],71.5%
same,"viability, T/C",[15],71.5%
same,"viability, T/C",[16],46.5%
same,"viability, T/C",[17],29.1%
same,"viability, T/C",[18],31.3%
same,"viability, T/C",[19],63%
same,"viability, T/C",[20],67.4%
same,"viability, T/C",[21],67%
same,"viability, T/C",[22],48.6%
same,"viability, T/C",[23],33%
same,"viability, T/C",[24],30.7%
same,"viability, T/C",[25],61.4%
same,"viability, T/C",[26],68.9%
same,"viability, T/C",[27],56.9%
same,"viability, T/C",[28],48.4%
same,"viability, T/C",[29],24.4%
same,"viability, T/C",[30],23.9%
same,"viability, T/C",[31],51.5%
same,"viability, T/C",[32],40.1%
same,"viability, T/C",[33],48.3%
same,"viability, T/C",[34],36.1%
same,"viability, T/C",[35],0.23%
same,"viability, T/C",[36],0.19%
CC1COCCN1c1cc(C2(S(C)(=N)=O)CC2)nc(-c2ccnc3[nH]ccc23)n1 (stereo unspecified) + CN(C)c1ccc(Nc2c3ccc(NC(=O)CCN4CCCC4)cc3nc3cc(NC(=O)CCN4CCCC4)ccc23)cc1,IC50,second compound 0.0316 µM,> 10000 nM
same,IC50,second compound 0.1 µM,> 10000 nM
same,IC50,second compound 0.316 µM,> 10000 nM
same,IC50,second compound 1 µM,8960 nM
same,IC50,second compound 3.16 µM,7800 nM
same,IC50,second compound 10 µM,8890 nM
same,"viability, T/C",[1],89%
same,"viability, T/C",[2],85.8%
same,"viability, T/C",[3],98.5%
same,"viability, T/C",[4],86.8%
same,"viability, T/C",[5],79.3%
same,"viability, T/C",[6],58.3%
same,"viability, T/C",[7],107%
same,"viability, T/C",[8],84.6%
same,"viability, T/C",[9],98.2%
same,"viability, T/C",[10],95.2%
same,"viability, T/C",[11],79.7%
same,"viability, T/C",[12],57.1%
same,"viability, T/C",[13],92.5%
same,"viability, T/C",[14],95.9%
same,"viability, T/C",[15],100%
same,"viability, T/C",[16],82.9%
same,"viability, T/C",[17],85.2%
same,"viability, T/C",[18],50.5%
same,"viability, T/C",[19],90.5%
same,"viability, T/C",[20],79.8%
same,"viability, T/C",[21],74.7%
same,"viability, T/C",[22],83.9%
same,"viability, T/C",[23],79.5%
same,"viability, T/C",[24],46.9%
same,"viability, T/C",[25],80.5%
same,"viability, T/C",[26],82.6%
same,"viability, T/C",[27],86.8%
same,"viability, T/C",[28],78.6%
same,"viability, T/C",[29],67.7%
same,"viability, T/C",[30],45.1%
same,"viability, T/C",[31],82.3%
same,"viability, T/C",[32],78.3%
same,"viability, T/C",[33],72.7%
same,"viability, T/C",[34],67.7%
same,"viability, T/C",[35],65.2%
same,"viability, T/C",[36],47.5%
